Earlier results as cited in publication PMC8725427 (Cellulose (London, England), 2022).

Key:
[1] = in vitro, over a period concerned; ref Vedula et al. ([2016])
[2] = from nanoliposomal carrier, simulated lung fluid; ref Vartak et al. ([2021])
[3] = carboxymethyl cellulose 2% (w/v) in PBS medium; ref Gunathilake et al. [2020b]
[4] = tested on: chikungunya virus; conditions: read-out: IC50 for chikungunya virus; ref von Rhein et al. [2016]
[5] = tested on: influenza A virus; conditions: read-out: IC50 for influenza A virus; ref Richart et al. [2018]
[6] = tested on: healthy organs; conditions: doses as high as 8 g/day; ref Almosa et al. [2020]
[7] = target: HIV-1 integrase; conditions: read-out: IC50 to inhibit the HIV-1 integrase; ref Mazumder et al. [1995]
[8] = tested on: SARS-CoV-1; conditions: read-out: EC50 for SARS-CoV-1 replication inhibition
[9] = tested on: vesicular stomatitis virus; conditions: read-out: IC50 for vesicular stomatitis virus
[10] = tested on: influenza A virus (IAV); conditions: ref Chen et al. [2010]
[11] = tested on: transmissible gastroenteritis virus; conditions: read-out: IC50 for transmissible gastroenteritis virus; ref Li et al. [2020]

For `Nc1nc2c(ncn2COCCO)c(=O)[nH]1` [ACV, acyclovir], the “Percentage of drug release” value [1] is listed as about 5%.

For `CCC(CC)COC(=O)[C@H](C)N[P@](=O)(OC[C@H]1O[C@@](C#N)(c2ccc3c(N)ncnn23)[C@H](O)[C@@H]1O)Oc1ccccc1` [Remdesivir, remdesivir], the “Time to complete drug release” value [2] is given as at most 50 h.

In the case of `COc1cc(/C=C/C(=O)CC(=O)/C=C/c2ccc(O)c(OC)c2)ccc1O` [curcumin], the “Curcumin solubility in carboxymethyl cellulose medium” value [3] is given as 147 ± 5.66 µg/mL, the IC50 [4] is given as 10.8 µM and the IC50 [5] is given as about 0.2 µM. The “Lethal effect on healthy organs” value [6] was “no lethal effect”, the IC50 [7] was 40 µM and the EC50 [8] was over 10 µM. For the same compound, the IC50 [9] was 4.5 µM, the “Effective dose against influenza A virus (IAV)” value [10] was ~ 10 µM and the IC50 [11] was 8.6 µM.
